For data set [1], the target named is T1, SIRT3 (Homo sapiens, UniProt Q9NTG7).
T1 sequence (Q9NTG7 1-399): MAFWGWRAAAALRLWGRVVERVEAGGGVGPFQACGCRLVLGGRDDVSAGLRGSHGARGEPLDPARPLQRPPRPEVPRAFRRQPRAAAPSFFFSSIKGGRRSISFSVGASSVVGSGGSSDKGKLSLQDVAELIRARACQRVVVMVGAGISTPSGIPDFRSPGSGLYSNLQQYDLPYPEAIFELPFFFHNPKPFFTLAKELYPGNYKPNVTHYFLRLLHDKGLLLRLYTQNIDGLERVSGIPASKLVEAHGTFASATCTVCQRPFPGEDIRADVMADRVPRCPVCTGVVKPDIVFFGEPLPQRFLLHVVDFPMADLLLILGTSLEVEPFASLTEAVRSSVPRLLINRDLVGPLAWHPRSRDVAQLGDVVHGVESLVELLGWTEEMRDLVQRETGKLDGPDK
The data set can be described thus: SIRT3 deacetylase inhibition assay. The data set is classed as biochemical.

The test system of data set [2] is MCF7 cells. The data set can be described thus: MCF7 cell permeability/availability assay. Conditions: for level of inhibitor detected in cells: 6 hours. The data set is classed as in vitro ADME.
For data set [3], the system named is MCF7 cells. As to the kind of experiment: Soft agar colony formation assay. It is filed as cell-based. Conditions: MCF7, 12 μM, 10 days.
The conditions of data set [4]: 50 mM DMSO stock diluted to 5 mg/ml in PBS.
Data set [5] relates to various cancer cell lines. Conditions: breast, pancreatic, colon, lung and many more; cited from earlier work.
Data set [6] concerns breast cancers. The conditions noted are these: xenograft model and genetic model of breast cancers in mice; cited from earlier work.

Each structure is given as a SMILES string.

`CCCCCCCCCCCCCC(=S)NCCCCC(NC(=O)OCc1ccccc1)C(=O)Nc1ccccc1` (centres unmarked) [TM]: the “SIRT3 inhibition at 83 μM” value in data set [1] is given as “did not inhibit”. The “level of inhibitor detected in cells” value in data set [2] (MCF7, 25 μM) is on record as “about 0.29 μg/million cells”; in data set [2] (MCF7, 50 μM) it was approximately 0.30 μg/million cells. The “compound detected in treated cells” value in data set [2] (MCF7 cells treated 6 hours, LC-MS) was “approximately 0.30 μg/million cells”. Further, the “colony formation in soft agar” value in data set [3] is “formed many colonies”. In addition, the “solubility in PBS (precipitation)” value in data set [4] is recorded as “white precipitation formed instantly”. Also, the “cytotoxicity in cancer cell lines” value in data set [5] is on record as “cytotoxic”. Further, the tumor growth result in data set [6] is on record as “inhibited tumor growth”.

The values are drawn from paper PMC6942458 (ACS chemical biology, 2019).
